# Reference: PubChem BioAssay (NCI)
# Values joined by “and” are separate entries in the source; they are usually repeats but may differ in a detail not shown here. Equal entries are not always repeated.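 Grown in 96-well plates, cells were treated for 48 hours with each compound at five concentrations. Insufficient inhibition: endpoint recorded as highest concentration tested. GI50 marks 50% less growth. TGI denotes the concentration required for complete inhibition of growth.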 Where a SMILES comes first, the peptide text is derived from it. [ ]: non-standard residue; d: D form. The star is where a group is joined. ξ: configuration not given here. ξF = NC(Cc1ccccc1)C(=O)O; Cbz = O=C(OCc1ccccc1)*; Aib = CC(C)(N)C(=O)O
# Experiments:
# Assay in all cases: NCI-60 cell line screen, 48 h
# HL-60(TB) leukemia = tested on: HL-60(TB) leukemia
# A498 renal = tested on: A498 renal
# A549 NSCLC = tested on: A549 NSCLC
# MDA-N = tested on: MDA-N
# BT-549 breast = tested on: BT-549 breast
# NCI-H226 lung = tested on: NCI-H226 lung
# RXF 393 renal = tested on: RXF 393 renal
# RPMI-8226 leukemia = tested on: RPMI-8226 leukemia
# OVCAR-4 ovarian = tested on: OVCAR-4 ovarian
# NCI-H460 lung = tested on: NCI-H460 lung
SMILES,TGI (HL-60(TB) leukemia),TGI (A498 renal),TGI (A549 NSCLC),TGI (MDA-N),TGI (BT-549 breast),TGI (NCI-H226 lung),TGI (RXF 393 renal),GI50 (A549 NSCLC),TGI (RPMI-8226 leukemia),TGI (OVCAR-4 ovarian),GI50 (NCI-H226 lung),TGI (NCI-H460 lung),GI50 (HL-60(TB) leukemia),GI50 (A498 renal),GI50 (RPMI-8226 leukemia),GI50 (OVCAR-4 ovarian),GI50 (BT-549 breast),GI50 (RXF 393 renal),GI50 (NCI-H460 lung)
CCCCCCCCCCCCCC1=C(O)C(=O)C(CC2=C(O)C(=O)C(CCCCCCCCCCCCC)=C(O)C2=O)=C(O)C1=O,> 100 µM,> 100 µM,> 100 µM,> 100 µM,> 100 µM,> 100 µM,32.2 µM,–,–,–,–,–,–,–,–,–,–,–,–
CC[C@@]1(O)C(=O)OCc2c1cc1n(c2=O)Cc2cc3ccccc3nc2-1,0.0527 µM,0.212 µM,2.51 µM,–,2.6 µM,0.177 µM,0.126 µM,0.0157 µM,0.765 µM,2.21 µM,0.0202 µM,0.158 µM,–,–,–,–,–,–,–
C=C1C(=O)O[C@@H]2/C=C(\C)CC/C=C(\C)CC[C@@]12O,3.02 µM,24.8 µM,27.1 µM,6.42 µM,7.81 µM,59.2 µM,0.897 µM,–,6.43 µM,4.86 µM,–,31.5 µM,–,–,–,–,–,–,–
COc1ccccc1CC(C)N (stereo not given),> 100 µM,> 100 µM,> 100 µM,–,–,> 100 µM,> 100 µM,–,> 100 µM,> 100 µM,–,> 100 µM,–,–,–,–,–,–,–
CCN1c2cc(Br)cc3[nH]c(=O)n(c23)CCC1C (stereo not given),35.8 µM,29 µM,35.1 µM,19.2 µM,31.2 µM,37.8 µM,27.6 µM,–,> 100 µM,65.2 µM,–,35.9 µM,–,–,–,–,–,–,–
Nc1[nH]c(=S)nc2nc3c(c(-c4ccccc4)c12)CCCC3,> 100 µM,–,> 100 µM,> 100 µM,> 100 µM,–,–,–,> 100 µM,> 100 µM,–,> 100 µM,–,–,–,–,–,–,–
O=C(CSCC(=O)N/N=C/c1ccccc1)N/N=C\c1ccccc1,–,–,> 100 µM,–,18.9 µM,> 100 µM,> 100 µM,–,> 100 µM,> 100 µM,–,> 100 µM,–,–,–,–,–,–,–
CCCCCCCCCCCCCCCCCCNc1ccn(C2OC(CO)C(OP(=O)(O)OCC(O)COP(=O)(O)OCC3OC(n4cc(F)c(NCCCCCCCCCCCCCCCCCC)nc4=O)CC3O)C2O)c(=O)n1 (stereo not given),> 50 µM,> 50 µM,> 50 µM,> 50 µM,> 50 µM,> 50 µM,–,–,> 50 µM,> 50 µM,–,> 50 µM,–,–,–,–,–,–,–
O=C(Oc1c(Cl)cc(C2(c3cc(Cl)c(OC(=O)c4ccccc4)c(Cl)c3)CCCCC2)cc1Cl)c1ccccc1,23.5 µM,24.1 µM,37.1 µM,25.6 µM,27.9 µM,42.5 µM,25.9 µM,–,33.3 µM,32.3 µM,–,26.1 µM,–,–,–,–,–,–,–
OC[C@H]1NC[C@@H](O)[C@@H](O)[C@H]1O,–,> 100 µM,–,> 100 µM,> 100 µM,> 100 µM,> 100 µM,–,> 100 µM,> 100 µM,–,> 100 µM,–,–,–,–,–,–,–
CC(C)(C)OC(=O)N1C(OP(=O)(Oc2ccccc2)Oc2ccccc2)=CSc2ccccc21,43.1 µM,–,> 100 µM,> 100 µM,> 100 µM,> 100 µM,> 100 µM,–,52 µM,> 100 µM,–,> 100 µM,–,–,–,–,–,–,–
CC(C)CCCC(C)[C@H]1CC[C@H]2n3c(nc4ccccc43)CCC[C@]12C (stereo not given in full),32.3 µM,28 µM,50.3 µM,32.4 µM,35.7 µM,33.5 µM,33.5 µM,–,33.9 µM,31.5 µM,–,32 µM,–,–,–,–,–,–,–
CCc1n[nH]c(=O)n1/N=C(\C)c1ccc([N+](=O)[O-])cc1,> 100 µM,–,> 100 µM,> 100 µM,> 100 µM,> 100 µM,> 100 µM,–,> 100 µM,> 100 µM,–,> 100 µM,–,–,–,–,–,–,–
O=C(NC(Cc1ccc(Br)cc1)C(=O)O)c1ccc(I)cc1 (stereo not given),> 100 µM,> 100 µM,> 100 µM,–,–,> 100 µM,> 100 µM,–,> 100 µM,> 100 µM,–,> 100 µM,–,–,–,–,–,–,–
NC(=O)C1CCCN1C(=O)C(N)Cc1ccccc1 (stereo not drawn) (H-Phe-Pro-NH2; configuration not given here),> 100 µM,> 100 µM,> 100 µM,> 100 µM,–,–,–,–,> 100 µM,> 100 µM,–,> 100 µM,–,–,–,–,–,–,–
Clc1cc(Cl)c2cc3cccc[n+]3cc2c1Cl,29.7 µM,34 µM,34.1 µM,32.8 µM,23.3 µM,43.6 µM,–,–,45.7 µM,30.2 µM,–,32.2 µM,–,–,–,–,–,–,–
Nc1ccc(O)c2c1C(=O)c1c(N)ccc(O)c1C2=O,> 100 µM,> 100 µM,> 100 µM,–,–,–,> 100 µM,–,> 100 µM,> 100 µM,–,> 100 µM,–,–,–,–,–,–,–

SMILES,TGI (HL-60(TB) leukemia),TGI (A498 renal),TGI (A549 NSCLC),TGI (MDA-N),TGI (BT-549 breast),TGI (NCI-H226 lung),TGI (RXF 393 renal),GI50 (A549 NSCLC),TGI (RPMI-8226 leukemia),TGI (OVCAR-4 ovarian),GI50 (NCI-H226 lung),TGI (NCI-H460 lung),GI50 (HL-60(TB) leukemia),GI50 (A498 renal),GI50 (RPMI-8226 leukemia),GI50 (OVCAR-4 ovarian),GI50 (BT-549 breast),GI50 (RXF 393 renal),GI50 (NCI-H460 lung)
CN(C)CCNC(=O)c1cc(Cl)cc2cc3ccccc3nc12,2.62 µM,2.2 µM,3.88 µM,–,–,3.89 µM,2.81 µM,–,8.29 µM,8.04 µM,–,2.41 µM,–,–,–,–,–,–,–
CCOC(=O)CNC(=O)C(Cc1ccccc1)NC(=O)C(C)(C)NC(=O)OCc1ccccc1 (stereo not given) (Cbz-[Aib]-[ξF]-Gly-OEt),> 100 µM,> 100 µM,> 100 µM,> 100 µM,–,–,–,–,> 100 µM,> 100 µM,–,–,–,–,–,–,–,–,–
CN(Cc1cn(O)c2nc(=N)nc(N)c-2n1)c1ccc(C(=O)NC23CC4CC(CC(C4)C2)C3)cc1,> 100 µM,57.1 µM,–,> 100 µM,79.1 µM,> 100 µM,94.9 µM,–,> 100 µM,–,–,> 100 µM,–,–,–,–,–,–,–
CC1(CO)COS(=O)OC1 (stereo not given),–,> 100 µM,> 100 µM,> 100 µM,–,> 100 µM,> 100 µM,–,–,> 100 µM,–,> 100 µM,–,–,–,–,–,–,–
COc1cc(/C=N/c2nc3cc4sc(/N=C/c5cc(OC)c(OC)c(OC)c5)nc4cc3s2)cc(OC)c1OC,> 100 µM,> 100 µM,> 100 µM,81.7 µM,> 100 µM,> 100 µM,> 100 µM,–,> 100 µM,> 100 µM,–,> 100 µM,–,–,–,–,–,–,–
OCC(O)CNc1ncnc2ccccc12 (stereo not given),> 100 µM,> 100 µM,> 100 µM,> 100 µM,> 100 µM,> 100 µM,> 100 µM,–,> 100 µM,> 100 µM,–,> 100 µM,–,–,–,–,–,–,–
COc1ccc(-c2nc3c(nc2-c2ccc(OC)cc2)C(N)=NS(=O)(=O)N3)cc1,> 100 µM,> 100 µM,> 100 µM,–,–,> 100 µM,> 100 µM,–,> 100 µM,–,–,–,–,–,–,–,–,–,–
CC1C(=O)CC(c2cccs2)N(N=O)C1c1cccs1 (stereo not given),> 72.2 µM,> 70.9 µM,> 100 µM,–,–,> 100 µM,81.1 µM,–,67.2 µM,> 100 µM,–,> 100 µM,–,–,–,–,–,–,–
O=C1c2cccnc2C(=O)c2c1c(C(=O)OCCN1CCCCC1)c1ccccn21,3.24 µM,13.1 µM,–,–,2.16 µM,0.0867 µM,0.235 µM,–,0.95 µM,2.3 µM,0.0135 µM,0.0128 µM,0.363 µM,0.065 µM,0.119 µM,0.655 µM,0.152 µM,0.0615 µM,0.005 µM
CCN(CC)CC[n+]1ccc2c(C)c3[nH]c4ccc(O)cc4c3c(C)c2c1,33.2 µM and 33.1 µM,74.6 µM and 84.3 µM,30.6 µM and 43.6 µM,25.7 µM,34.3 µM,6.64 µM and 3.58 µM,56.5 µM and 57.2 µM,1.5 µM,43.4 µM and 35.6 µM,23.4 µM and 30.4 µM,0.631 µM,13.3 µM and 3.45 µM,–,20.5 µM,3.41 µM,–,–,13.9 µM,0.147 µM
S=c1c2[nH]cnc2ncn1CCSC1=NC=NC2=NC=NC21 (stereo not given),> 100 µM,> 100 µM,> 100 µM,> 100 µM,> 100 µM,> 100 µM,> 100 µM,–,> 100 µM,> 100 µM,–,> 100 µM,–,–,–,–,–,–,–
CC(C)(C)c1ccc2c(c1)C#Cc1cc(C(C)(C)C)ccc1OCCCO2,> 100 µM,> 100 µM,> 100 µM,> 100 µM,> 100 µM,> 100 µM,> 100 µM,–,> 100 µM,> 100 µM,–,> 100 µM,–,–,–,–,–,–,–
CNC1Cc2c[nH]c3cccc(c23)C12C=C(C)C(=O)O2 (stereo not given),> 100 µM,> 100 µM,> 100 µM,> 100 µM,> 100 µM,> 100 µM,> 100 µM,–,> 100 µM,> 100 µM,–,> 100 µM,–,–,–,–,–,–,–
NC(CCOCCP(=O)(O)CCC1C=CC=CC1)C(=O)O (stereo not given),> 100 µM,–,> 100 µM,> 100 µM,> 100 µM,–,> 100 µM,–,> 100 µM,> 100 µM,–,> 100 µM,–,–,–,–,–,–,–
CCOC(=O)CCC(C(=O)OCC)n1nc2ccc(Nc3c(C)[n+]([O-])c4cc(F)c(OCC)cc4[n+]3[O-])cc2n1 (stereo not given),> 100 µM,> 100 µM,> 100 µM,> 100 µM,> 100 µM,> 100 µM,32.5 µM,–,> 100 µM,> 100 µM,–,> 100 µM,–,–,–,–,–,–,–
CSc1nc(CO)c(CO)n1C,> 100 µM,> 100 µM,> 100 µM,–,–,> 100 µM,> 100 µM,–,> 100 µM,> 100 µM,–,> 100 µM,–,–,–,–,–,–,–
Cc1[nH]c(=O)[nH]c(=O)c1/C=C/C(=O)NC(CO)CS(=O)CS(C)=O (stereo not given),57.4 µM,130 µM,332 µM,–,–,77.3 µM,125 µM,–,183 µM,14.9 µM,–,68.1 µM,–,–,–,–,–,–,–
